The values below come from patent US5401733A, “Stable and active metabolites of 1,25-dihydroxy-16-ene-cholecalciferol” (Hoffmann-La Roche Inc., priority 1993, dated 1995).

The structures appear in SMILES notation. Entries after “also recorded” stand apart in the source; their conditions may differ. Read-outs that look alike come from different tables or passages of the source.

This assay relates to HL-60 cells. As to the kind of experiment: Differentiation of HL-60 cells (NBT reduction), 4 days. As to conditions: for Percentage of NBT positive cells, Exp. 1 / Percentage of NBT positive cells, Exp. 2 / Percentage of NBT positive cells, Average / EC50: 4 days; for Percentage of NBT positive cells, Average: average of Exp. 1 and 2; for EC50: Homo sapiens, HL-60, 96 h, NBT reduction, read-out: ED50 (concentration of compound which induced differentiation of 50% of the cells). It counts as cell-based, human. The procedure:
Effect of 1,25(OH)2 -16-ene-24-oxo-D3 on the Morphological Differentiation of HL-60 Cells
Tissue culture medium used was RPMI-1640 (Gibco) supplemented with glutamine, antibiotics and 20% fetal bovine serum.
1,25(OH)2 -16-ene-D3 and 1,25(OH)2 -16-ene-24-oxo-D3 were dissolved in sufficient ethanol to yield stock solutions of 1 mM. Reduced lighting was used when working with the compounds and the stock solutions were stored in the dark at -20 C. in an argon atmosphere. The stock solutions were added to flasks, which were supplemented with sufficient ethanol to achieve the final concentration of 0.1%.
A HL-60 tumor cell line was originally derived from a patient with promyelocytic leukemia and was obtained from the American Type Culture Collection (ATCC #CCL240). The cells were maintained in liquid cultures by serial passage twice weekly in the tissue culture medium. For each experimental point, cells were grown in replicate flasks. The cells were seeded at a rate of 10^6 cells per 25 cm^2 flask and grown in the presence of the compounds for a total of 4 days. Ethanol, used as the vehicle, was kept constant in all dilutions in each experiment and had no effect on the cell differentiation at the concentrations used […]. After 4 days of incubation at 37° C., cultures were evaluated for cell differentiation.
Quantitation of differentiated cells was done by the biochemical method of nitroblue tetrazolium reduction (NBT) reduction. A 1 ml aliquot of cell suspension was removed from each flask and centrifuged for 10 minutes, and resuspended in about 200 μl of a work solution. The work solution contained 100 ng of tetradecanoyl phorbol acetate per ml of NBT and was kept in a covered vial on ice. The NBT was prepared fresh on the day of enumeration to 1 mg/ml in growth medium. The cells were incubated in a 37° C. water bath for 30 minutes. An aliquot was placed into a hemocytometer and the total number of blue-black cells per approximately 200 cells was determined. The percentage of differentiated cells was then calculated.
The results are also shown as the concentration of compound which induced differentiation of 50% of the cells (ED50).

As to `C=C1/C(=C\C=C2/CCC[C@]3(C)C([C@H](C)CCC(=O)C(C)(C)O)=CC[C@@H]23)C[C@@H](O)C[C@@H]1O` [1,25(OH)2-16-ene-24-oxo-D3, 1,25-dihydroxy-16-ene-24-oxo-cholecalciferol], the “differentiation of HL-60 / human promyelocytic cells (in words)” value is “induced differentiation of human promyelocytic cells; also recorded: stimulates differentiation of HL-60 cells” and the EC50 came out at 35 nM. For the same molecule, under “0.001 μM”, the “Percentage of NBT positive cells, Exp. 1” value was found to be 8.0%; the “Percentage of NBT positive cells, Exp. 2” value came to 24.5%; the “Percentage of NBT positive cells, Average” value (“Percentage … Average” for short) is reported as 16.25%. Besides, under “0.01 μM”, the “Percentage of NBT positive cells, Exp. 1” value is 47.0%; the “Percentage of NBT positive cells, Exp. 2” value came out at 35.5%; the “Percentage … Average” value came out at 41.25%. Where the note is “0.1 μM”, the “Percentage of NBT positive cells, Exp. 1” value is listed as 55.0%; the “Percentage of NBT positive cells, Exp. 2” value worked out at 60.0%; the “Percentage … Average” value is 57.5%. Further, for the setting “1.0 μM”, the “Percentage of NBT positive cells, Exp. 1” value is 69.0%; the “Percentage of NBT positive cells, Exp. 2” value was found to be 70.0%; the “Percentage … Average” value was found to be 69.5%. For the same molecule, the “differentiation of HL-60 / human promyelocytic cells (in words)” value (listed as I) was “stimulate differentiation of HL-60 cells”. Where the note is “versus 1,25(OH)2 -16-ene-D3”, the “potency relative to the parent compound (in words)” value is given as “greater than that of the parent compound”.

Take `C=C1/C(=C\C=C2/CCC[C@]3(C)C([C@H](C)CCCC(C)(C)O)=CC[C@@H]23)C[C@@H](O)C[C@@H]1O` [1,25(OH)2-16-ene-D3, 1,25-dihydroxy-16-ene-cholecalciferol]: the EC50 worked out at 80 nM. Also, where the note is “0.001 μM”, the “Percentage of NBT positive cells, Exp. 1” value stood at 12.0%; the “Percentage of NBT positive cells, Exp. 2” value amounted to 18.5%; the “Percentage … Average” value worked out at 15.25%. Also, where the note is “0.01 μM”, the “Percentage of NBT positive cells, Exp. 1” value is on record as 30.5%; the “Percentage of NBT positive cells, Exp. 2” value amounted to 47.5%; the “Percentage … Average” value is given as 39.0%. Where the note is “0.1 μM”, the “Percentage of NBT positive cells, Exp. 1” value is listed as 48.0%; the “Percentage of NBT positive cells, Exp. 2” value is recorded as 61.0%; the “Percentage … Average” value was determined as 54.5%. For the same molecule, for the setting “1.0 μM”, the “Percentage of NBT positive cells, Exp. 1” value is on record as 62.5%; the “Percentage of NBT positive cells, Exp. 2” value was determined as 60.5%; the “Percentage … Average” value stood at 61.5%.
